The data set in a line: Plasma pharmacokinetics of amdizalisib (LC-MS/MS) after a single oral dose of [14C]amdizalisib suspension. Type of data set: in vivo, human. The following applies: for CL/F: amdizalisib in plasma, single oral 30 mg/100 µCi suspension, mean ± SD. The method, then: Six subjects were admitted to the clinical research center 1 day prior to dosing, with random urine and fecal samples collected as blank excretion controls. After fasting overnight for at least 10 h, a blank blood sample was collected after a regular breakfast (449 kcal, with ∼35% energy from fat) on Day 1. […] It is noteworthy that the medication administration duration for each subject was strictly kept within 10 min. Scheduled collection of urine, feces, and blood samples, and safety monitoring proceeded until completion.
Venous blood samples were collected within 0.5 h prior to administration and at 0.5, 1, 1.5, 2, 3, 4, 6, 8, 12, 24, 36, 48, 72, and 96 h after administration. About 8 mL of blood was collected at each time point in the anticoagulant collection tube containing K2-EDTA. The centrifuged plasma was used for non-radioactive and radioactive pharmacokinetic and biotransformation (metabolite) analyses. In addition, about 2 mL of venous blood was collected within 0.5 h before administration and at 1, 4, 8, 12, 24, and 48 h after administration for whole blood radioactivity analysis. Additional 10 mL of venous blood for each time point was collected at 1, 4, 8, 12, 24, and 48 h after administration, and the plasma was obtained by centrifugation for biotransformation (metabolites) analysis. Urine and fecal samples were collected until 144 h (4 subjects) or 192 h (2 subjects) after administration.
Chromatographic separation was achieved on an XBridge C18 column, maintained at 40°C, with a mobile phase consisting of 2 mM ammonium formate in water (A) and methanol (B). A gradient elution was employed at a flow rate of 0.6 mL/min. The autosampler was set to 5°C, with an injection volume of 5 μL. […] Each analytical run included calibration standards and quality control samples to ensure method accuracy and precision. The corrected total concentration data of labelled (^14C) and unlabeled (^12C) analytes were given directly by Analyst data processing software. The standard curve consists of 0.500, 1.00, 2.00, 10.0, 50.0, 200, 450, 500 ng/mL. The quality control (QC) sample concentrations were 0.5 (lower limit of quantification QC), 1.50 (lower QC), 20.0 (low to medium QC), 250 (medium QC), 400 (high QC) ng/mL, respectively.
Pharmacokinetic analysis was performed using Phoenix WinNonlin® software version 8.3. […] Non-compartmental model was used to estimate the main PK parameters. Descriptive statistics applied to parameters including maximum plasma concentration after administration (Cmax), the time to reach maximum plasma concentration after administration (Tmax), elimination rate constant (λz), area under the plasma concentration-time curve from the time 0 to the time of last quantifiable concentration (AUC0-t, obtained by the linear trapezoidal method), area under the plasma concentration-time curve from time 0 extrapolated to infinity (AUC0-∞, AUC0-∞ = AUC0-t + Ct/λ z ), half-life (t1/2, t1/2 = ln ([…])/λz), mean residence time (MRT, MRT = AUMC/AUC), apparent clearance (CL/F, CL/F = Dose/AUC0-∞), apparent volume of distribution based on terminal phase (Vz/F, Vz/F = Dose/(λz×AUC0-∞)).

The source of these data is publication PMC11605291 (Frontiers in Pharmacology, 2024).

What is called CL/F is clearance divided by bioavailability, as obtained after extravascular dosing. Usually AUC(0-inf) stands for total exposure, with the tail of the curve extrapolated. Low readings indicate less exposure, high ones more exposure. For orientation: AUC(0-t) means exposure summed from dosing to a finite time, without extrapolation to infinity. A high value points to high exposure. By Cmax is commonly meant the maximum level reached in the sampled fluid or tissue. As a reminder, the half-life is the time needed for the level to fall by half in the phase considered. Lower therefore signals rapid decline. In turn, `C[C@H](Nc1ncnc(N)c1C#N)c1cc2ncc(Cl)n2nc1-c1ccccc1` [Amdizalisib] registered a CL/F of 16.8 ± 4.44 L/h. In addition, the apparent clearance CL/F (listed as amdizalisib) came to 16.8 L/h. Besides, the concentration at 72 h (male, human, plasma, oral, 30 mg, below the lower quantifiable limit in 4 of 6 subjects, detectable in 2) was less than 0.5 ng/mL. Besides, where the note is “male, human, plasma, po, 30 mg”, the AUC(0-inf) is 1880 ± 478 ng·h/mL, the AUC(0-t) is 1870 ± 474 ng·h/mL, the highest level (Cmax) was 244 ± 48.9 ng/mL and the half-life was 8.34 ± 2.43 h. For the same compound, the MRT last (male, human, plasma, po, 30 mg, read-out: MRT0-t) was found to be 9.65 ± 1.48 h. Besides, the Vd/F (male, human, plasma, po, 30 mg, read-out: Vz/F) stood at 192 ± 28 L.
